Reference: US8476197B2, “Aminopropenoates as fungicides” (priority 2009, dated 2013)
Read-outs that look alike come from different tables or passages of the source. Marks after values point to notes of the source that are not given here.

CCOC(=O)C(C#N)=C(NC(C)c1ccccn1)c1scnc1Cl (stereo not shown) [Compound 1462]
Log P (pH 2.7): 2.59^[a]

CCOC(=O)C(C#N)=C(NC(C)c1nccs1)c1scnc1Cl (stereo not shown) [Compound 1463]
Log P (pH 2.7): 2.59^[a]

CCOC(=O)C(C#N)=C(NC1CCC1)c1scnc1Cl [Compound 1465]
Log P (pH 2.7): 3^[a]

CCOC(=O)C(C#N)=C(NC(C)C1CC1)c1scnc1Cl (stereo not shown) [Compound 1466]
Log P (pH 2.7): 2.02^[a]

CCOC(=O)C(C#N)=C(NC(C)COC)c1scnc1Cl (stereo not shown) [Compound 1467]
Log P (pH 2.7): 2.61^[a]

CCOC(=O)C(C#N)=C(NC(C)C(C)C)c1scnc1Cl (stereo not shown) [Compound 1468]
Log P (pH 2.7): 3.46^[a]

CC(C)C(C)NC(=C(C#N)C(=O)NC1CS(=O)(=O)C1)c1cccnc1Cl (stereo not shown) [Compound 1469]
Log P (pH 2.3): 2.28 | Log P (pH 7.5): 2.29

CCNC(=O)C(C#N)=C(NC(C)c1nccs1)c1ccc(Cl)nc1Cl (stereo not shown) [Compound 1471]
Log P (pH 7.5): 2.65

CCOC(=O)C(C#N)=C(NC(C)C(C)C)c1cccnc1-c1ccc(OC)cc1 (stereo not shown) [Compound 1472]
Log P (pH 2.3): 3.54 | Log P (pH 7.5): 3.59

CCSC(=O)C(C#N)=C(NC(C)C(C)C)c1cccnc1Cl (stereo not shown) [Compound 1474]
Log P (pH 2.7): 3.87^[a]

CCOC(=O)C(C#N)=C(NC(C)C(=O)NC)c1scnc1Cl (stereo not shown) [Compound 1476]
Log P (pH 2.7): 1.81^[a]

CCOC(=O)C(C#N)=C(NC(C)c1c(Cl)cccc1Cl)c1scnc1Cl (stereo not shown) [Compound 1477]
Log P (pH 2.7): 4^[a]

CCOC(=O)C(C#N)=C(NCc1ccc(C)c(C)n1)c1scnc1Cl [Compound 1478]
Log P (pH 2.7): 1.94^[a]

CC(NC(=C(C#N)C(=O)O)c1cccnc1Cl)c1nccs1 (stereo not shown) [Compound 1479]
Log P (pH 2.7): 1.01^[a]

CCOC(=O)C(C#N)=C(NC(C)C1CC1)c1cnn(C)c1Cl (stereo not shown) [Compound 1482]
Log P (pH 2.7): 2.98^[a]

CCOC(=O)C(C#N)=C(NC(C)C(C)C)c1cnn(C)c1Cl (stereo not shown) [Compound 1485]
Log P (pH 2.7): 3.25^[a]

CCOC(=O)C(C#N)=C(NC(C)COC)c1cnn(C)c1Cl (stereo not shown) [Compound 1486]
Log P (pH 2.7): 2.42^[a]

CCOC(=O)C(C#N)=C(NC1CCC1)c1cnn(C)c1Cl [Compound 1487]
Log P (pH 2.7): 2.82^[a]

CCOC(=O)C(C#N)=C(NC(C)C(=O)NC)c1cnn(C)c1Cl (stereo not shown) [Compound 1488]
Log P (pH 2.7): 1.63^[a]

CCSC(=O)C(C#N)=C(NC(C)c1nccs1)c1cccnc1Cl (stereo not shown) [Compound 1489]
Log P (pH 2.7): 2.9^[a]

C=CCOC(=O)C(C#N)=C(NC(C)c1nccs1)c1cccnc1Cl (stereo not shown) [Compound 1490]
Log P (pH 2.7): 2.62^[a]

CC(C)C(C)NC(=C(C#N)C(=O)N1CCCC1)c1cccnc1Cl (stereo not shown) [Compound 1491]
Log P (pH 2.7): 3.02^[a]

COCCNC(=O)C(C#N)=C(NC(C)C(C)C)c1cccnc1Cl (stereo not shown) [Compound 1492]
Log P (pH 2.7): 2.73^[a]

CC(C)C(C)NC(=C(C#N)C(=O)NC1CCCC1)c1cccnc1Cl (stereo not shown) [Compound 1493]
Log P (pH 2.7): 3.9^[a]

CC(C)CNC(=O)C(C#N)=C(NC(C)C(C)C)c1cccnc1Cl (stereo not shown) [Compound 1494]
Log P (pH 2.7): 3.74^[a]

CCOC(=O)C(C#N)=C(NC(C)C(C)C)c1ccnc2ccccc12 (stereo not shown) [Compound 1496]
Log P (pH 2.7): 3.29^[a]

CCOC(=O)C(C#N)=C(NC1CCC1)c1ccnc2ccccc12 [Compound 1498]
Log P (pH 2.7): 2.88^[a]

CCOC(=O)C(C#N)=C(NC(C)COC)c1ccnc2ccccc12 (stereo not shown) [Compound 1499]
Log P (pH 2.7): 2.5^[a]

CCOC(=O)C(C#N)=C(NC(C)c1nccs1)c1cnn(C)c1Cl (stereo not shown) [Compound 1501]
Log P (pH 2.7): 2.42^[a]

CCOC(=O)C(C#N)=C(NC(C)c1nccs1)c1ccnc2ccccc12 (stereo not shown) [Compound 1502]
Log P (pH 2.7): 2.5^[a]

CCOC(=O)C(C#N)=C(NC(C)C(=O)NC)c1ccnc2ccccc12 (stereo not shown) [Compound 1503]
Log P (pH 2.7): 1.8^[a]

CCOC(=O)C(C#N)=C(NC(C)C(C)C)c1cccnc1 (stereo not shown) [Compound 1504]
Log P (pH 2.3): 2.61 | Log P (pH 7.5): 2.67

CCOC(=O)C(C#N)=C(NC(C)C(C)C)c1cccnc1-c1cccs1 (stereo not shown) [Compound 1505]
Log P (pH 2.3): 3.7^[c]; 3.7^[b] | Log P (pH 7.5): 3.7^[c]; 3.7^[b]

CC(C)C(C)NC(=C(C#N)C(=O)N1CCSCC1)c1cccnc1Cl (stereo not shown) [Compound 1507]
Log P (pH 2.7): 3.27^[a]

CC(C)C(C)NC(=C(C#N)C(=O)N1CCCCC1)c1cccnc1Cl (stereo not shown) [Compound 1508]
Log P (pH 2.7): 3.48^[a]

CC(C)C(C)NC(=C(C#N)C(=O)N1CCSC1)c1cccnc1Cl (stereo not shown) [Compound 1509]
Log P (pH 2.7): 3.19^[a]

CSCCNC(=O)C(C#N)=C(NC(C)C(C)C)c1cccnc1Cl (stereo not shown) [Compound 1510]
Log P (pH 2.7): 3.29^[a]

CC(C)C(C)NC(=C(C#N)C(=O)NC1CCC1C)c1cccnc1Cl (stereo not shown) [Compound 1511]
Log P (pH 2.7): 4.01^[a]

CC1CC(NC(=O)C(C#N)=C(NC(C)C(C)C)c2cccnc2Cl)C1 (stereo not shown) [Compound 1512]
Log P (pH 2.7): 4.01^[a]

CC(C)C(C)NC(=C(C#N)C(=O)N(C)C1CC1)c1cccnc1Cl (stereo not shown) [Compound 1513]
Log P (pH 2.7): 3.02^[a]

CCN(OC)C(=O)C(C#N)=C(NC(C)C(C)C)c1cccnc1Cl (stereo not shown) [Compound 1514]
Log P (pH 2.7): 3.15^[a]

CC(C)C(C)NC(=C(C#N)C(=O)Nc1ccncc1)c1cccnc1Cl (stereo not shown) [Compound 1515]
Log P (pH 2.7): 1.58^[a]
